Values after ≈ are worked out from the molar mass of the structure shown. Where two headings read alike, the source gives them in different places.
What was measured:
[1] = test system: Staphylococcus aureus (MRSA, NRS384); experiment: MIC determination, broth microdilution; type: cell-based
Source text: (§1) Bacterial strains representing pathogenic species of clinical concern, the so called ESKAPE pathogens, were selected for MIC studies using compounds A and B. The results are shown in Table A. These species are from the families or genera Enterococcus, Staphylococcus, Klebsiella, Acinetobacter, Pseudomonas, and Enterobacteriaceae. Specifically, Enterococcus faecium HM-204 and HM-460, Staphylococcus aureus strains NRS384 and COL, Klebsiella pneumoniae strains NR-48976 and NR-48977, Acinetobacter baumannii strains NR-17783 and NR-19299, Pseudomonas aeruginosa strain NR-48982 and Salmonella enterica strains NR-22067 and NR-22068 were purchased from BEI resources. Escherichia coli strain ATCC 25922, and the Staphylococcus aureus (S. aureus) strains ATCC 25923 (MSSA) and ATCC BAA-44 (MRSA) were purchased from the American Type Culture Collection (ATCC).
(§2) General Procedure for Minimal inhibitory concentration (MIC) determination. The minimal inhibitory concentrations (MICS) of antimicrobial compounds A, B, and C were determined by the broth microdilution method detailed in the Clinical and Laboratory Standards Institute handbook (Cockerill and Clinical and Laboratory Standards Institute, Methods for Dilution Antimicrobial Susceptibility Tests for Bacteria That Grow Aerobically). All antimicrobial compounds were purchased from Sigma-Aldrich. The growth media used for all MIC experiments, except those for Enterococcus faecium, was Mueller Hinton Broth (MHB) purchased from HIMEDIA through VWR (cat: 95039-356). For experiments using Enterococcus faecium, the growth and susceptibility medium was BD Bacto™ Brain Heart Infusion (BHI) Broth purchased from VWR (cat: 90003-040). USA Scientific CytoOne 96-well Clear Tissue Culture assay plates (cat: CC7682-7596) were used for all MIC and MRC experiments. MIC assay plates were prepared by diluting the antibiotic to be tested in a 2-fold series down the assay plate. A total of 8 concentrations of each compound were tested in triplicate. Compounds were prepared in 180 μL at 2× the intended final concentrations in MHB or BHI and 2% DMSO.
(§3) The bacterial inoculum was prepared by selecting 5-7 colonies from an agar plate to make a day culture in BHI of the bacterial species to be assayed. This was grown at 37° C. for 2-4 hours. After having reached the mid-logarithmic growth phase (OD600 0.15-0.4), the day culture was diluted in the appropriate assay medium (MHB or BHI) to OD600 0.002. 100 μL of this inoculum was added to each experimental well of the 96-well assay plate resulting in an additional two-fold dilution of the bacterial culture and an initial OD600 of 0.001 in the assay plate, a final volume of 200 μL and the intended compound concentrations in 1% DMSO. MIC assay plates were then incubated at 37° C. with shaking for 18 hours.
(§4) The MICs were determined as defined in the Clinical and Laboratory Standards Institute handbook. After overnight growth, Plates were read by eye and 600 nm absorbance read using a BioTek Epoch2 Microplate Spectrophotometer (BioTek).

MRSA strain BAA-44 [2] = experiment: MIC determination, broth microdilution; type: cell-based, Staphylococcus aureus
Source text: as §1, §2, §3, §4

MRSA strain BAA-44 [3] = experiment: Antibiotic MICs in the presence of Compound C; type: cell-based, Staphylococcus aureus; conditions: MRSA BAA-44; in the presence of 5 mg/L Compound C
Protocol: as §2, §3, §4
(§5) Determination of Antibiotic MICs in the Presence of Compound C against MRSA and MSSA. Methicillin-resistant S. aureus (MRSA) strain ATCC BAA-44 and the methicillin-sensitive S. aureus (MSSA) strain ATCC 25923 were used to determine the MIC values of various antimicrobial compounds in the presence of 5 μg/mL Compound C. […] The test antibiotics were then diluted into assay plates as described earlier. The final concentration of Compound C after inoculation with BAA-44 was 5 μg/mL. MIC values were determined by the methods described above.

MRSA strain NRS-384 [4] = experiment: Antibiotic MICs in the presence of Compound C; type: cell-based, Staphylococcus aureus; conditions: MRSA NRS-384; in the presence of 5 mg/L Compound C
Protocol: [The source words this procedure for another variant and reports this variant under the same test.] as §2, §3, §4, §5

MRSA strain ATCC 700789 [5] = experiment: MIC determination, broth microdilution; type: cell-based, Staphylococcus aureus; conditions: MRSA strain ATCC 700789 (Table C)
Protocol: as §2, with “Compounds were prepared in 180 μL at 2× the intended final concentrations in MHB or BHI and 2% DMSO.” left out
as §4

MRSA strain ATCC-33592 [6] = experiment: MIC determination, broth microdilution; type: cell-based, Staphylococcus aureus; conditions: MRSA strain ATCC-33592 (Table C)
Protocol: as §2, with “Compounds were prepared in 180 μL at 2× the intended final concentrations in MHB or BHI and 2% DMSO.” left out
as §4

MRSA strain ATCC 700789 [7] = experiment: Minimal re-sensitizing concentration (MRC) determination; type: cell-based, Staphylococcus aureus
Protocol: (§6) Minimal re-sensitizing concentration (MRC) determination. Antibiotic MIC breakpoint values where S. aureus is considered susceptible were determined from the CLSI handbook supplement. MHB was supplemented with the antibiotic at a concentration two-fold greater than the CLSI susceptible MIC value. Two-fold serial dilutions of Compound C were prepared in antibiotic supplemented media in 96-well microplates. These were inoculated with MRSA diluted to OD600 0.002 and incubated at 37° C. with shaking for 18 hours before results were interpreted. The concentration of […] in antibiotic supplemented media at which there was no observable growth was considered the minimum re-sensitizing concentration (MRC).

MRSA strain ATCC-33592 [8] = experiment: as above; type: cell-based, Staphylococcus aureus
Protocol: as §6

MRSA strain BAA-44 [9] = experiment: as above; type: cell-based, Staphylococcus aureus
Protocol: as §6

MRSA strain NRS-384 [10] = experiment: as above; type: cell-based, Staphylococcus aureus
Protocol: as §6

[11] = Staphylococcus aureus, MRSA NRS-384, in the absence of Compound C, read-out: MIC mg/L (NRS-384)
[12] = Staphylococcus aureus, MRSA BAA-44, in the absence of Compound C, read-out: MIC mg/L (BAA-44)
[13] = medium supplemented with amox/clav
[14] = medium supplemented with cefazolin

SMILES	MIC [1, 11]	MIC (MRSA strain BAA-44 [2]; [12])	MIC (BAA-44) (+5 mg/L Compound C) (MRSA strain BAA-44 [3])	MIC (NRS-384) (+5 mg/L Compound C) (MRSA strain NRS-384 [4])	further results
Cc1nnc(SCC2=C(C(=O)O)N3C(=O)[C@@H](NC(=O)Cn4cnnn4)[C@H]3SC2)s1 [Cefazolin, reference compound]	64 mg/L (≈ 141 µM)	128 mg/L (≈ 282 µM)	<2 mg/L	<2 mg/L	
CCC[C@@H]1C[C@@H](C(=O)N[C@@H]([C@H]2O[C@H](SC)[C@H](O)[C@@H](O)[C@H]2O)[C@H](C)Cl)N(C)C1 [Clindamycin]	0.125 mg/L (≈ 0.294 µM)	> 4 mg/L	>4 mg/L	<0.03125 mg/L	
O=C(c1ccc(Cl)cc1)N1CCc2c([nH]c3ccc(Cl)cc23)C1 [Compound C]	> 100 mg/L	> 100 mg/L			MIC ([1]; MRSA strain NRS-384 (Table C)): > 64 mg/L; MIC (MRSA strain BAA-44 [2]; MRSA strain BAA-44 (Table C)): 64 mg/L (≈ 185 µM); MIC (MRSA strain ATCC 700789 [5]): > 64 µg/mL; MIC (MRSA strain ATCC-33592 [6]): 4 µg/mL (≈ 11.6 µM); MRC to Amox/clav (MRSA strain ATCC 700789 [7]; [13]): 4; MRC to Cefazolin (MRSA strain ATCC 700789 [7]; [14]): 4; MRC to Amox/clav (MRSA strain ATCC-33592 [8]; [13]): 2; MRC to Cefazolin (MRSA strain ATCC-33592 [8]; [14]): 2; MRC to Amox/clav (MRSA strain BAA-44 [9]; medium supplemented with amox/clav at two-fold greater than the CLSI susceptible MIC): 4; MRC to Cefazolin (MRSA strain BAA-44 [9]; medium supplemented with cefazolin at two-fold greater than the CLSI susceptible MIC): 4; MRC to Amox/clav (MRSA strain NRS-384 [10]; [13]): 2; MRC to Cefazolin (MRSA strain NRS-384 [10]; [14]): 4
CC(=O)NC[C@H]1CN(c2ccc(N3CCOCC3)c(F)c2)C(=O)O1 [Linezolid]	2 mg/L (≈ 5.93 µM)	1 mg/L (≈ 2.96 µM)	0.5 mg/L	1 mg/L	
C[C@@H](O)[C@H]1C(=O)N2C(C(=O)O)=C(S[C@@H]3CN[C@H](C(=O)N(C)C)C3)[C@H](C)[C@H]12 [Meropenem, reference compound]	8 mg/L (≈ 20.9 µM)	16 mg/L (≈ 41.7 µM)	<0.25 mg/L	<0.25 mg/L	
COc1cccc(OC)c1C(=O)N[C@@H]1C(=O)N2[C@@H]1SC(C)(C)[C@@H]2C(=O)O [Methicillin, reference compound]	256 mg/L (≈ 673 µM)	> 256 mg/L	4 mg/L	8 mg/L	
Cc1onc(-c2ccccc2)c1C(=O)N[C@@H]1C(=O)N2[C@@H]1SC(C)(C)[C@@H]2C(=O)O [Oxacillin, reference compound]	64 mg/L (≈ 159 µM)	64 mg/L (≈ 159 µM)	<2 mg/L	<2 mg/L	
CO[C@H]1/C=C/O[C@@]2(C)Oc3c(C)c(O)c4c(O)c(c(/C=N/N5CCN(C)CC5)c(O)c4c3C2=O)NC(=O)/C(C)=C\C=C\[C@H](C)[C@H](O)[C@@H](C)[C@@H](O)[C@@H](C)[C@H](OC(C)=O)[C@@H]1C [Rifampicin]	< 0.0312 mg/L	1 mg/L (≈ 1.22 µM)		<0.03125 mg/L	
[H]/N=C(/N)N[C@H]1[C@H](O)[C@@H](O)[C@H](O[C@@H]2O[C@@H](C)[C@](O)(C=O)[C@H]2O[C@@H]2O[C@@H](CO)[C@H](O)[C@@H](O)[C@@H]2NC)[C@@H](N/C(N)=N\[H])[C@@H]1O [Streptomycin]	8 mg/L (≈ 13.8 µM)	> 32 mg/L	>32 mg/L	1 mg/L	
CN(C)[C@@H]1C(O)=C(C(N)=O)C(=O)[C@@]2(O)C(O)=C3C(=O)c4c(O)cccc4[C@@](C)(O)[C@H]3C[C@@H]12 [Tetracycline]	8 mg/L (≈ 18 µM)	16 mg/L (≈ 36 µM)	4 mg/L	4 mg/L	
CN[C@H](CC(C)C)C(=O)N[C@H]1C(=O)N[C@@H](CC(N)=O)C(=O)N[C@H]2C(=O)N[C@H]3C(=O)N[C@H](C(=O)N[C@H](C(=O)O)c4cc(O)cc(O)c4-c4cc3ccc4O)[C@H](O)c3ccc(c(Cl)c3)Oc3cc2cc(c3O[C@@H]2O[C@H](CO)[C@@H](O)[C@H](O)[C@H]2O[C@H]2C[C@](C)(N)[C@H](O)[C@H](C)O2)Oc2ccc(cc2Cl)[C@H]1O [Vancomycin]			0.5 mg/L	0.5 mg/L	MIC ([1]; Staphylococcus aureus, read-out: MIC mg/L (NRS-384)): 1 mg/L (≈ 0.69 µM); MIC (MRSA strain BAA-44 [2]; Staphylococcus aureus, read-out: MIC mg/L (BAA-44)): 1 mg/L (≈ 0.69 µM)

— US12371429B2, “Antibiotic resistance-modifying tricyclic heteroaryl compounds and uses thereof” (Recreo Pharmaceuticals LLC, priority 2018, dated 2025)
